Drawing on the supplement of paper PMC11616607, this text covers drug sensitivity score for 15 molecules.

The first test concerns OV90. Put plainly: drug sensitivity score (DSS) from 5-point dose-response viability curve (DSS (area-under-curve based score)); higher = more sensitive (stronger growth inhibition or killing); extreme values may be limits of the assay. To be noted: exposure time: 72 h; concentration range: 5 concentrations over 10,000-fold range. The essentials: (§1)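 Ovarian cancer and normal ovarian cell lines were tested in 384-well plates, with drugs dispensed acoustically (Echo 550) in DMSO or water at five concentrations covering a 10,000-fold range. After 1,500 cells per well were added, plates were incubated for 3 days at 37°C and 5% CO2, and viability was read by CellTiter-Glo luminescence on a PHERAstar FS. Breeze software gave a drug sensitivity score for each cell line and drug, where a higher score means greater sensitivity. A value of zero means no response.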
In the case of `Cc1cc(Nc2cc(N3CCN(C)CC3)nc(/C=C/c3ccccc3)n2)n[nH]1` [ENMD-2076], the drug sensitivity score came out at 8.4.
Still for that read-out and setting: as for `Cc1cc(C)c(CNC(=O)c2cc(-c3ccc(CN4CCOCC4)cc3)cc3c2cnn3C2CCCC2)c(=O)[nH]1` [EPZ-5687], the figure is 0; as for `NC(=O)/C(=C/n1cnc(-c2cc(C(F)(F)F)cc(C(F)(F)F)c2)n1)c1cncnc1` [Eltanexor], 13.2; as for `CC(C)(O)CNc1nc(Nc2ccnc(C(F)(F)F)c2)nc(-c2cccc(C(F)(F)F)n2)n1` [Enasidenib], 0.
The same measure, in the same setting: as for `COC(=O)N[C@@H](C)CNc1nccc(-c2cn(C(C)C)nc2-c2cc(Cl)cc(NS(C)(=O)=O)c2F)n1` [Encorafenib], the figure is 5.6.
`C[C@@H]1CN(C(=O)c2ccc(NC(=O)c3cc(O[C@H](C)c4c(Cl)ccc(F)c4Cl)c(N)nn3)cc2)C[C@H](C)N1` [Ensartinib]: the drug sensitivity score is 0.1.
Same read-out and setting: next, `Nc1ccccc1NC(=O)c1ccc(CNC(=O)OCc2cccnc2)cc1` [Entinostat]: 7.4.
`c1cn2cc(-c3ccc4cn[nH]c4c3)nc(Nc3ccc(N4CCOCC4)cc3)c2n1` [Entospletinib] returned a drug sensitivity score of 0.
On the same count and under the same terms, as for `CN1CCN(c2ccc(C(=O)Nc3n[nH]c4ccc(Cc5cc(F)cc(F)c5)cc34)c(NC3CCOCC3)c2)CC1` [Entrectinib], the figure is 0; as for `CNC(=O)c1ccc(N2C(=S)N(c3ccc(C#N)c(C(F)(F)F)c3)C(=O)C2(C)C)cc1F` [Enzalutamide], 0.
The same measure, in the same setting: as for `Cn1cc(C2=C(c3cn(C4CCN(Cc5ccccn5)CC4)c4ccccc34)C(=O)NC2=O)c2ccccc21` [Enzastaurin], the figure is 0; as for `NS(=O)(=O)NCCNc1nonc1/C(=N/O)Nc1ccc(F)c(Br)c1` [Epacadostat], 0.4; as for `COc1cccc2c1C(=O)c1c(O)c3c(c(O)c1C2=O)C[C@@](O)(C(=O)CO)C[C@@H]3O[C@H]1C[C@H](N)[C@@H](O)[C@H](C)O1` [Epirubicin], 5.7.
Same read-out and setting: as for `CCOc1ccccc1-n1c(C(C)N2CCN(C(=O)COc3ccc(Cl)cc3)CC2)nc2ccccc2c1=O` (stereo not given) [Erastin], the figure is 1.4; as for `COc1cc(OC)cc(N(CCNC(C)C)c2ccc3ncc(-c4cnn(C)c4)nc3c2)c1` [Erdafitinib], 0.

The subject of another test is HOSE2C. Described as above. The following applies: exposure time: 72 h; concentration range: 5 concentrations over 10,000-fold range. The essentials:
as §1
`Cc1cc(Nc2cc(N3CCN(C)CC3)nc(/C=C/c3ccccc3)n2)n[nH]1` [ENMD-2076] had a drug sensitivity score of 10.3.
Same read-out and setting: next, `Cc1cc(C)c(CNC(=O)c2cc(-c3ccc(CN4CCOCC4)cc3)cc3c2cnn3C2CCCC2)c(=O)[nH]1` [EPZ-5687]: 0.
Same read-out and setting: next, `NC(=O)/C(=C/n1cnc(-c2cc(C(F)(F)F)cc(C(F)(F)F)c2)n1)c1cncnc1` [Eltanexor]: 15.7.
For the molecule `CC(C)(O)CNc1nc(Nc2ccnc(C(F)(F)F)c2)nc(-c2cccc(C(F)(F)F)n2)n1` [Enasidenib], the drug sensitivity score is 0.
As to `COC(=O)N[C@@H](C)CNc1nccc(-c2cn(C(C)C)nc2-c2cc(Cl)cc(NS(C)(=O)=O)c2F)n1` [Encorafenib], the drug sensitivity score was found to be 0.5.
Molecule `C[C@@H]1CN(C(=O)c2ccc(NC(=O)c3cc(O[C@H](C)c4c(Cl)ccc(F)c4Cl)c(N)nn3)cc2)C[C@H](C)N1` [Ensartinib] displayed a drug sensitivity score of 1.9.
Still for that read-out and setting: as for `Nc1ccccc1NC(=O)c1ccc(CNC(=O)OCc2cccnc2)cc1` [Entinostat], the figure is 11.8.
Molecule `c1cn2cc(-c3ccc4cn[nH]c4c3)nc(Nc3ccc(N4CCOCC4)cc3)c2n1` [Entospletinib] displayed a drug sensitivity score of 0.
In turn, `CN1CCN(c2ccc(C(=O)Nc3n[nH]c4ccc(Cc5cc(F)cc(F)c5)cc34)c(NC3CCOCC3)c2)CC1` [Entrectinib] returned a drug sensitivity score of 0.
The molecule `CNC(=O)c1ccc(N2C(=S)N(c3ccc(C#N)c(C(F)(F)F)c3)C(=O)C2(C)C)cc1F` [Enzalutamide] showed a drug sensitivity score of 0.
The same measure, in the same setting: as for `Cn1cc(C2=C(c3cn(C4CCN(Cc5ccccn5)CC4)c4ccccc34)C(=O)NC2=O)c2ccccc21` [Enzastaurin], the figure is 1.5; as for `NS(=O)(=O)NCCNc1nonc1/C(=N/O)Nc1ccc(F)c(Br)c1` [Epacadostat], 0.
The same measure, in the same setting: as for `COc1cccc2c1C(=O)c1c(O)c3c(c(O)c1C2=O)C[C@@](O)(C(=O)CO)C[C@@H]3O[C@H]1C[C@H](N)[C@@H](O)[C@H](C)O1` [Epirubicin], the figure is 10.3; as for `CCOc1ccccc1-n1c(C(C)N2CCN(C(=O)COc3ccc(Cl)cc3)CC2)nc2ccccc2c1=O` (stereo not given) [Erastin], 0; as for `COc1cc(OC)cc(N(CCNC(C)C)c2ccc3ncc(-c4cnn(C)c4)nc3c2)c1` [Erdafitinib], 11.2.

In another test the test system is OVCAR4. Described as above. The following applies: exposure time: 72 h; concentration range: 5 concentrations over 10,000-fold range. The essentials: as §1
`Cc1cc(Nc2cc(N3CCN(C)CC3)nc(/C=C/c3ccccc3)n2)n[nH]1` [ENMD-2076] displayed a drug sensitivity score of 5.8.
Take `Cc1cc(C)c(CNC(=O)c2cc(-c3ccc(CN4CCOCC4)cc3)cc3c2cnn3C2CCCC2)c(=O)[nH]1` [EPZ-5687]: the drug sensitivity score amounted to 0.
`NC(=O)/C(=C/n1cnc(-c2cc(C(F)(F)F)cc(C(F)(F)F)c2)n1)c1cncnc1` [Eltanexor] displayed a drug sensitivity score of 13.7.
Same read-out and setting: as for `CC(C)(O)CNc1nc(Nc2ccnc(C(F)(F)F)c2)nc(-c2cccc(C(F)(F)F)n2)n1` [Enasidenib], the figure is 0.
Same read-out and setting: next, `COC(=O)N[C@@H](C)CNc1nccc(-c2cn(C(C)C)nc2-c2cc(Cl)cc(NS(C)(=O)=O)c2F)n1` [Encorafenib]: 0.
Still for that read-out and setting: as for `C[C@@H]1CN(C(=O)c2ccc(NC(=O)c3cc(O[C@H](C)c4c(Cl)ccc(F)c4Cl)c(N)nn3)cc2)C[C@H](C)N1` [Ensartinib], the figure is 0; as for `Nc1ccccc1NC(=O)c1ccc(CNC(=O)OCc2cccnc2)cc1` [Entinostat], 4.3.
`c1cn2cc(-c3ccc4cn[nH]c4c3)nc(Nc3ccc(N4CCOCC4)cc3)c2n1` [Entospletinib] gave a drug sensitivity score of 0.
The same measure, in the same setting: next, `CN1CCN(c2ccc(C(=O)Nc3n[nH]c4ccc(Cc5cc(F)cc(F)c5)cc34)c(NC3CCOCC3)c2)CC1` [Entrectinib]: 1.
On the same count and under the same terms, next, `CNC(=O)c1ccc(N2C(=S)N(c3ccc(C#N)c(C(F)(F)F)c3)C(=O)C2(C)C)cc1F` [Enzalutamide]: 0.1; `Cn1cc(C2=C(c3cn(C4CCN(Cc5ccccn5)CC4)c4ccccc34)C(=O)NC2=O)c2ccccc21` [Enzastaurin]: 0; `NS(=O)(=O)NCCNc1nonc1/C(=N/O)Nc1ccc(F)c(Br)c1` [Epacadostat]: 0.
Molecule `COc1cccc2c1C(=O)c1c(O)c3c(c(O)c1C2=O)C[C@@](O)(C(=O)CO)C[C@@H]3O[C@H]1C[C@H](N)[C@@H](O)[C@H](C)O1` [Epirubicin] gave a drug sensitivity score of 2.9.
In the case of `CCOc1ccccc1-n1c(C(C)N2CCN(C(=O)COc3ccc(Cl)cc3)CC2)nc2ccccc2c1=O` (stereo not given) [Erastin], the drug sensitivity score turned out to be 9.1.
For `COc1cc(OC)cc(N(CCNC(C)C)c2ccc3ncc(-c4cnn(C)c4)nc3c2)c1` [Erdafitinib], the drug sensitivity score was 2.6.
